The target of assay [1] is DNA topoisomerase (Yersinia pestis, UniProt A0A2S9PM60). In words: Yersinia topoisomerase I cleavage product accumulation – biochemical, cherry-pick, dose response (AID 588525).
Assay [2] in a line: Luminescence Cell-Based Dose Confirmation HTS to Identify Activators of 5'UTR Stem-Loop Driven Alpha-Synuclein mRNA Translation in H4 Neuroglioblastoma Cells. [Related pubchem assays: 1829 (Project Summary), 1814 (Primary HTS)]. It is filed as functional.
Assay [3] can be described thus: viability loss in HepG2 hepatoma cells – cell-based, ATP luminescence, cherry-pick, activator set 2, cytotoxicity control, dose response (AID 1053143). It is filed as functional.
Assay [4] concerns the target T1, Nuclear receptor subfamily 0 group B member 1 (Homo sapiens, UniProt P51843).
T1 sequence (P51843 whole entry): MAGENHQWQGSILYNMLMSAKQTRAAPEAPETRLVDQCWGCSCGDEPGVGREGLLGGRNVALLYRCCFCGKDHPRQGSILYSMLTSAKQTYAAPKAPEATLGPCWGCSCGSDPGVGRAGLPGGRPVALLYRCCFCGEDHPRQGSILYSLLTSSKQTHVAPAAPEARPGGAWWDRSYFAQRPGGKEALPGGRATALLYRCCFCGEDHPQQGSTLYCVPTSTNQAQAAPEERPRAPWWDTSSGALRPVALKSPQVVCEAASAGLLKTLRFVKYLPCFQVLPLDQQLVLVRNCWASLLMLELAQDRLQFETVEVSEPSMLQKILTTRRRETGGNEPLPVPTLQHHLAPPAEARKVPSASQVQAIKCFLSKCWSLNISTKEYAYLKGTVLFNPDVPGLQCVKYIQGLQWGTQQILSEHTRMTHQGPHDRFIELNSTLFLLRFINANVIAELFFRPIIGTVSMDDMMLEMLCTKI
In words: Luminescence-based cell-based high throughput dose response assay for inhibitors of the orphan nuclear receptor subfamily 0, group B, member 1 (DAX1; NR0B1). [Related pubchem assays (depositor defined):AID504766, AID504790]. It is filed as functional.

Assay [5] can be described thus: Luminescence Cell-Based Dose Response HTS to Identify Activators of Luciferase Translation or Activity in H4 […] Cells. [Related pubchem assays: 1829 (Project Summary), 1814 (Primary HTS)]. The class given is functional.
For assay [6], the system named is HEK293. Nature of the assay: cells. It is filed as functional, cell-based. The following applies: Homo sapiens.
Assay [7] in a line: Luminescence Cell-Based Dose Response to Identify Activators of Luciferase Translation or Activity in H4-C Neuroglioblastoma Cells. [Related pubchem assays: 1829 (Project Summary), 1814 (Primary HTS)]. The class given is functional.
The nature of assay [8]: Luminescence Cell-Based Dose Confirmation to Identify Activators of 5'UTR Stem-Loop Driven Alpha-Synuclein mRNA Translation in H4 Neuroglioblastoma Cells. [Related pubchem assays: 1829 (Project Summary), 1814 (Primary HTS)]. The class given is functional.
The subject of assay [9] is H4. In words: Luminescence Cell-Based Dose Response HTS to Identify Activators of 5'UTR Stem-Loop Driven Prion Protein mRNA Translation in H4 Neuroglioblastoma Cells. [Related pubchem assays: 1829 (Project Summary), 1814 (Primary HTS)]. It is filed as functional. Conditions: Homo sapiens.
Assay [10] in a line: Luminescence Cell-Based Dose Response to Identify Activators of 5'UTR Stem-Loop Driven Prion Protein mRNA Translation in H4-C Neuroglioblastoma Cells. [Related pubchem assays: 1829 (Project Summary), 1814 (Primary HTS)]. The class given is functional.
The target in assay [11] is Large T antigen (Simian virus 40, UniProt P03070). It is filed as functional, Betapolyomavirus macacae.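 Note: Confirmatory-stage PubChem screen for compounds that inhibit SV40 T antigen.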
The target of assay [12] is Dual specificity tyrosine-phosphorylation-regulated kinase 1A (Rattus norvegicus, UniProt Q63470). The class given is biochemical, Homo sapiens.
Assay [13] concerns the target T2, Rac GTPase-activating protein 1 (Homo sapiens, UniProt Q9H0H5).
T2 sequence (Q9H0H5 whole entry): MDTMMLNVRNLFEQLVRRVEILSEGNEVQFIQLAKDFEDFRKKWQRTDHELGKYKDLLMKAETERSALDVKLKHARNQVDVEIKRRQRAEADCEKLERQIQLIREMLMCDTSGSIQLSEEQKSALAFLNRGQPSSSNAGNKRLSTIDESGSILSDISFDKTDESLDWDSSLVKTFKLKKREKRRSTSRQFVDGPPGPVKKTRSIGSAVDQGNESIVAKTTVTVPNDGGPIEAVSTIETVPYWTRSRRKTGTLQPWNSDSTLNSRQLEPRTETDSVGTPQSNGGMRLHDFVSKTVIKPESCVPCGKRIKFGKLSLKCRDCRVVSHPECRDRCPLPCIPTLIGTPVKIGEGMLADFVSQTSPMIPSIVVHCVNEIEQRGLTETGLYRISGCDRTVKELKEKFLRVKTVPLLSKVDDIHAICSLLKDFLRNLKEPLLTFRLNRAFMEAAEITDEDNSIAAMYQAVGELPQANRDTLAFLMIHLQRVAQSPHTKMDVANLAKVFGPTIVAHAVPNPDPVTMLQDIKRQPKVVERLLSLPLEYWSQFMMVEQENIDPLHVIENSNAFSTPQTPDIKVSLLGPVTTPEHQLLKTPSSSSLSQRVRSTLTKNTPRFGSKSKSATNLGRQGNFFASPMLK
In words: blockers of MgcRacGAP-driven Rac1 GTP hydrolysis – biochemical, ADP Hunter fluorescence, primary and confirmatory, confirmation (AID 624330). It is filed as functional.

Assay [14] concerns CHO. Nature of the assay: CHO cell viability loss, potency – luminescence, cytotoxicity control for TLR9-MyD88 binding inhibitor project, dose response (AID 588339).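 Note: CHO cells stably coexpressing TLR9 and MyD88 fusions from primary screen; compound exposure lasted 48 hours before viability readout.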 The class given is functional, cell-based, hamster. Conditions: Cricetulus griseus.
For assay [15], the target named is Beta Lactamase (Pseudomonas aeruginosa, UniProt Q932Y6). Nature of the assay: BLA reporter interference, concentration series – BLA reporter cells, FRET fluorescence, artefact control for TLR9-MyD88 binding inhibitor project, dose response (AID 588341).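 Note: cell based assay in CHO-K1 cells stably expressing beta-lactamase.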 It is filed as cell-based.
The target in assay [16] is T3, Type-1 angiotensin II receptor (Homo sapiens, UniProt P30556).
T3 sequence (P30556 whole entry): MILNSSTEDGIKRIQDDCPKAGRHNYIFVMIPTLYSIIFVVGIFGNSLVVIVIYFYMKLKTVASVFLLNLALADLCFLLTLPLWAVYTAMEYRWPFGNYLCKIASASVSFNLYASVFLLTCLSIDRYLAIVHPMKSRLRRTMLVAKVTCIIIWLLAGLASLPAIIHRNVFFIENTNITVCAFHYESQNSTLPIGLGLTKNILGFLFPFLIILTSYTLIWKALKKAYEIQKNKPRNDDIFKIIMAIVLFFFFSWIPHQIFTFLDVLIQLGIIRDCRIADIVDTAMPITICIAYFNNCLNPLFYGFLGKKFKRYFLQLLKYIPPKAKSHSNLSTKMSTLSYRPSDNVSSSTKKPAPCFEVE
In words: antagonism of angiotensin II type 1 receptor – cell-based, uHTS hits, selectivity assay for APJ receptor antagonist project, dose response (AID 463214).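 Note: antagonist potency against angiotensin II stimulated AT1 response.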 It is filed as functional.

In assay [17] the target is Beta-galactosidase (Escherichia coli, UniProt Q8VNN2). Nature of the assay: PubChem AID 485352. The class given is functional.

SMILES strings stand for the structures. The source made the active and inactive calls. Where only a bound is given, the exact number is not on record here.

Experimental findings from ChEMBL document CHEMBL1201862, “PubChem BioAssay data set” (2004) are described below.

Sequence of DNA topoisomerase (A0A2S9PM60 whole entry): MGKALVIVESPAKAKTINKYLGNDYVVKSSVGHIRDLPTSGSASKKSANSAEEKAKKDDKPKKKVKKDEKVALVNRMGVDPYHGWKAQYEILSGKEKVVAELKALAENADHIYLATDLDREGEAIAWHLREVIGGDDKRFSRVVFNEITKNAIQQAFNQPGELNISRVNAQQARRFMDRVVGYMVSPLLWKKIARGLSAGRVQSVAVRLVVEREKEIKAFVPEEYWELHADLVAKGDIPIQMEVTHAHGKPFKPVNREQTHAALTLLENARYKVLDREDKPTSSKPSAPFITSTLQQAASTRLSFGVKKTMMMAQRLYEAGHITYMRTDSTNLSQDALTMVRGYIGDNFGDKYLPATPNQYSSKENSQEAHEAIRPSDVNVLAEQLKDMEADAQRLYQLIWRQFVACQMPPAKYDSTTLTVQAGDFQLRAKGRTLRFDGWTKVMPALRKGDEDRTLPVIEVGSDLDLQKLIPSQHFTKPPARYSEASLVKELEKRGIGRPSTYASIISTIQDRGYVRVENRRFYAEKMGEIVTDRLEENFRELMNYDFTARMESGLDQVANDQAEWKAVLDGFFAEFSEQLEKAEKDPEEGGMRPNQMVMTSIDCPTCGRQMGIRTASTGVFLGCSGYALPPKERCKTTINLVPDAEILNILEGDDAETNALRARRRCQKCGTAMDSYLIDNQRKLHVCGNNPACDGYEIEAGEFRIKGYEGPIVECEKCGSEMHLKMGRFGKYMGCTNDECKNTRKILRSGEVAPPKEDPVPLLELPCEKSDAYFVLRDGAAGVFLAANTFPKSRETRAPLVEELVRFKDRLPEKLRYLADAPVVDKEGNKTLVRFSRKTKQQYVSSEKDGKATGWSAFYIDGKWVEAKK
Sequence of Beta Lactamase (Q932Y6 whole entry): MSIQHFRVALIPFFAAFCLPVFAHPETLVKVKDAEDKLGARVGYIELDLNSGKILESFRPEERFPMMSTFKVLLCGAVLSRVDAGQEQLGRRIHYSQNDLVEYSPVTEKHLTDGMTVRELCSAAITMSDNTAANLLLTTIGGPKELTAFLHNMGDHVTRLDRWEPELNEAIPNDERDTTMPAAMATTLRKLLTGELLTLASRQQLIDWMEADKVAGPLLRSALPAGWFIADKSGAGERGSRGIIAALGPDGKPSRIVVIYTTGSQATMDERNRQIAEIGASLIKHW
Sequence of Large T antigen (P03070 whole entry): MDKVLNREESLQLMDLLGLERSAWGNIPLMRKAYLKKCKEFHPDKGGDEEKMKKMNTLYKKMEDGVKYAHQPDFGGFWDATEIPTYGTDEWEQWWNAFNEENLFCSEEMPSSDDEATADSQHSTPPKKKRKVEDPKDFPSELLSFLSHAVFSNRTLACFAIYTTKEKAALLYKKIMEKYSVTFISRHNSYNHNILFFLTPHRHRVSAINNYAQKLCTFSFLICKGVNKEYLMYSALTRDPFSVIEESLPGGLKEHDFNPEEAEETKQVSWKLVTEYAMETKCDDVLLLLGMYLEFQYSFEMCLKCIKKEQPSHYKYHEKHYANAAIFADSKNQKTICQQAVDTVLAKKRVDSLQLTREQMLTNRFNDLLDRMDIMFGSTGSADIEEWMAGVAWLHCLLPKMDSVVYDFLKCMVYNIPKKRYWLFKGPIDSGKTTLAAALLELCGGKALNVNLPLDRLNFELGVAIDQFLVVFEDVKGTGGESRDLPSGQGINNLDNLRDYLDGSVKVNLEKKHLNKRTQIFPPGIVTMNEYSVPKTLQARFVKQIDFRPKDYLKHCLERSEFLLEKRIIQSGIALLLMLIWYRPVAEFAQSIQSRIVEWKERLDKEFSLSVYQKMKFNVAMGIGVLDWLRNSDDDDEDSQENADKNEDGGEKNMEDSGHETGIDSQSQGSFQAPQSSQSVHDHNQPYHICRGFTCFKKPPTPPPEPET
Sequence of Beta-galactosidase (Q8VNN2 whole entry): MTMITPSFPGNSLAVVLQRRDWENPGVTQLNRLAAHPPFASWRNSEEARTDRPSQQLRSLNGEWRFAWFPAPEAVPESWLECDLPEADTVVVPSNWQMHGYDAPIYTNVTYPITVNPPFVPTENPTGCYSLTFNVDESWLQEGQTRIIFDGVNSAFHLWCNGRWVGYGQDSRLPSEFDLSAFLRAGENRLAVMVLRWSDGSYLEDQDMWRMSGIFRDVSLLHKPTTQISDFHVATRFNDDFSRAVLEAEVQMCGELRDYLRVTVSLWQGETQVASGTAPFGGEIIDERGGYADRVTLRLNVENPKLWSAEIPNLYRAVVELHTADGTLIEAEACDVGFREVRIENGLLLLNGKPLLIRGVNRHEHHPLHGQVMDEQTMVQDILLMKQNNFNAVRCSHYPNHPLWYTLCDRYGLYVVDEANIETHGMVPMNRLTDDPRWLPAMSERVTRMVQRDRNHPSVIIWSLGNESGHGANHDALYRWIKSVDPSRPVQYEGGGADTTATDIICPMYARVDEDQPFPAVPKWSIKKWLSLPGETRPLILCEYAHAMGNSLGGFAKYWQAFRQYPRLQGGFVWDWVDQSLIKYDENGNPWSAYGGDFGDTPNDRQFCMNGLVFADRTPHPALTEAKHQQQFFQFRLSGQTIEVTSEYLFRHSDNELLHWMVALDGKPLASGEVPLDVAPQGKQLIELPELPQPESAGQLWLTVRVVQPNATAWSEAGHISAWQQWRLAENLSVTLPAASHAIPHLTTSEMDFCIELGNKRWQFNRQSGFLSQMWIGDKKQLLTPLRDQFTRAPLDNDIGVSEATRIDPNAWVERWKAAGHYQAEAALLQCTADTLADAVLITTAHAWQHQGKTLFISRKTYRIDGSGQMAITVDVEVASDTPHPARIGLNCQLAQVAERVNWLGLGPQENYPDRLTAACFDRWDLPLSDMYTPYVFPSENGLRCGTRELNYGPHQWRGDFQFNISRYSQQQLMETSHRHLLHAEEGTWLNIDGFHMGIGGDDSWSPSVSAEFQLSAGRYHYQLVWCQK

With `Cc1ccc(-n2c(C)cc(C(=O)Cn3nc(C(=O)O)c4ccccc4c3=O)c2C)cc1`, in assay [1], the AC50 (commonly the concentration giving half of the maximal activity seen) is 5.3 µM (active).
Consider `O=C(Nc1ncccc1O)c1ccc2c(c1)OCCO2`, for which the EC50 (in general, the concentration at which the effect is half-maximal) in assay [2] is 185 nM (active); in assay [5], 155 nM (active); in [7], > 12 µM (not active); in assay [8], 329 nM (active); in [9], 139 nM (active); in assay [10], 7.24 µM (active). The AC50 in assay [3] was 12 µM (active). For the same molecule, the IC50 (as a rule, the point on the concentration scale where inhibition reaches its midpoint) is > 67.5 µM (inactive) in [4] and 1.59 µM (active) in assay [6].
Turning to `C=CCSC1=NC(=O)/C(=C/c2cccs2)S1`, the IC50 in assay [11] is 40.8 µM (active); in assay [13] it was 29.7 µM (active). For the same molecule, the AC50 in assay [12] was 8.3 µM (active).
With `O=C(C1=NN(c2ccccc2)C2C(=O)N(c3ccc(Cl)cc3)C(=O)C12)c1ccccc1` (configuration not stated), the results for the IC50 in [14] and in [15] were > 49.7 µM (inactive) and 11.8 µM (inactive), respectively.
`CN1/C(=c2/s/c(=C3/C(=O)N(c4ccccc4)N=C3Nc3ccccc3)n(C)c2=O)C(C)(C)c2ccccc21`: the IC50 in assay [16] is 27 µM (not active). The concentration for a half-maximal effect (EC50) in [17] is 39.9 µM (active).
